Test results as given in BigSolDB 2.1.

Cl.O=C(O)c1cn(-c2ccc(F)cc2)c2cc(N3CCNCC3)c(F)cc2c1=O
solubility (mole fraction)
Conditions	in DMF	in acetonitrile	in ethanol	in ethyl acetate	in isopropanol	in methanol	in n-butanol	in n-hexane
278.15 K	0.00136	0.00011	0.00019	0.0038	0.00047	0.00181	0.00148	0.00029
283.15 K	0.00148	0.00012	0.00022	0.00422	0.00059	0.00194	0.00162	0.00033
288.15 K	0.00164	0.00014	0.00025	0.00476	0.00072	0.00211	0.00179	0.00038
293.15 K	0.00183	0.00017	0.00029	0.00539	0.00083	0.00234	0.00202	0.00044
298.15 K	0.00205	0.0002	0.00033	0.00627	0.00098	0.00262	0.00224	0.00053
303.15 K	0.00232	0.00024	0.00037	0.00719	0.0011	0.00294	0.0025	0.00063
308.15 K	0.00259	0.00028	0.00043	0.00831	0.00123	0.0033	0.00281	0.00075
313.15 K	0.0029	0.00034	0.00049	0.00961	0.00134	0.00369	0.00312	0.00089
318.15 K	0.00324	0.0004	0.00056	0.0109	0.00147	0.00411	0.00344	0.00105
323.15 K	0.00359	0.00047	0.00064	0.0126	0.00161	0.00457	0.00379	0.0012
328.15 K	0.00397	0.00054	0.00072	0.0144	0.00172	0.00502	0.00419	0.00137
333.15 K	0.0044	0.00062	0.0008	0.0163	0.00185	0.00549	0.00463	0.00155
